Tests used:
[1] = target: IL-17A(FLAG-Tagged): IL-17RA(His-Tagged) (Homo sapiens, UniProt Q16552, K93Q); experiment: IL-17A(FLAG-Tagged): IL-17RA(His-Tagged) Binding Disruption Eu-HTRF Assay; conditions: disruption of IL-17A/IL-17RA binding; simple average if tested more than once
Procedure, shortened: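 Compound (22-point 2-fold series) was preincubated 1 h at rt with FLAG-IL-17A, then His-IL-17RA, Eu-anti-FLAG and D2-anti-His were added in PBS/0.01% Triton X-100 with 200 mM KF for 2 h at rt. The ratio of 665 and 620 nm intensities versus concentration was fitted to one-site competition for IC50.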

[2] = test system: IL-17A-induced G-CSF production in human normal keratinocytes (NHK); experiment: NHK Assay: IL-17A-induced G-CSF production in human normal keratinocytes; assay type: cell-based; conditions: 24 h, IL-17A 5 ng/mL, 5% FBS, simple average if tested more than once
Procedure, shortened: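 Adult normal human keratinocytes treated 24 h at 37 °C with IL-17A (5 ng/mL final) pre-incubated 1 h at rt with titrated compound; 0.2% DMSO, 5% FBS. G-CSF in supernatant measured by HTRF against a standard curve to give IC50; viability checked by CellTiter-Glo.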

Chain of UniProt Q16552 (Q16552 with tags, fused parts or gaps K93Q): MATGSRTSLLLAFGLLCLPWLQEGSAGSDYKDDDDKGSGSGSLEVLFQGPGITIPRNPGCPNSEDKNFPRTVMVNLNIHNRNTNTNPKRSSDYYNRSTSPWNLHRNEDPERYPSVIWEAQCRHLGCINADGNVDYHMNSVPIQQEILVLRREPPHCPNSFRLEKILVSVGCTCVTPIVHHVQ

Row | Structure (SMILES) | IC50 [1] | IC50 ([2]; Homo sapiens, Keratinocyte) | IC50 [2]
1 | O=C(CC1CC(F)(F)C1)N[C@@H](c1ccn2cc([C@@H](NC(=O)[C@H]3C[C@@H]3C(F)(F)F)C3CCC(F)(F)CC3)nc2n1)C1CC1 (relative stereo) [Example 12, trans-(1R*,2R*)—N—((S)-(7-((R)-Cyclopropyl(2-(3,3-difluorocyclobutyl)acetamido)methyl)imidazo[1,2-a]pyrimidin-2-yl)(4,4-difluorocyclohexyl)methyl)-2-(trifluoromethyl)cyclopropane-1-carboxamide] | 6000 nM | > 20000 nM | 
2 | CC(C)n1ncnc1C(=O)N[C@H](c1cn2ccc([C@@H](NC(=O)CC3CC(F)(F)C3)C3CC3)nc2n1)C1CCC(F)(F)CC1 [Example 14, N—((S)-(7-((S)-Cyclopropyl(2-(3,3-difluorocyclobutyl)acetamido)methyl)imidazo[1,2-a]pyrimidin-2-yl)(4,4-difluorocyclohexyl)methyl)-1-isopropyl-1H-1,2,4-triazole-5-carboxamide] | 17000 nM | > 20000 nM | 
3 | O=C(CC1CC(F)(F)C1)N[C@@H](c1ccn2cc([C@@H](NC(=O)c3ccnc(CC(F)(F)F)c3)C3CCC(F)(F)CC3)nc2n1)C1CC1 [Example 25, N—((S)-(7-((R)-Cyclopropyl(2-(3,3-difluorocyclobutyl)acetamido)methyl)imidazo[1,2-a]pyrimidin-2-yl)(4,4-difluorocyclohexyl)methyl)-2-(2,2,2-trifluoroethyl)isonicotinamide] | 310 nM | 210 nM | 
4 | Cc1nonc1C(=O)N[C@H](c1cn2ccc([C@H](NC(=O)CC3CC(F)(F)C3)C3CC3)nc2n1)C1CCC(F)(F)CC1 [Example 21, N—((S)-(7-((R)-Cyclopropyl(2-(3,3-difluorocyclobutyl)acetamido)methyl)imidazo[1,2-a]pyrimidin-2-yl)(4,4-difluorocyclohexyl)methyl)-4-methyl-1,2,5-oxadiazole-3-carboxamide] | 99 nM | 590 nM | 
5 | O=C(CCC(F)(F)F)NC(c1ccn2cc([C@@H](NC(=O)c3cnnn3CCC(F)(F)F)C3CCC(F)(F)CC3)nc2n1)C1CC1 (single isomer, unassigned) [Example 2, N—((S)-(7-((S*)-Cyclopropyl(4,4,4-trifluorobutanamido)methyl)imidazo[1,2-a]pyrimidin-2-yl)(4,4-difluorocyclohexyl)methyl)-1-(3,3,3-trifluoropropyl)-1H-1,2,3-triazole-5-carboxamide] | 3700 nM |  | 6200 nM
6 | CC(CC(=O)N[C@@H](c1ccn2cc([C@@H](NC(=O)c3ncnn3CC3CC3)C3CCC(F)(F)CC3)nc2n1)C1CC1)C(F)(F)F (single isomer, unassigned) [Example 19, N—((S)-(7-((R)-Cyclopropyl((S*)-4,4,4-trifluoro-3-methylbutanamido)methyl)imidazo[1,2-a]pyrimidin-2-yl)(4,4-difluorocyclohexyl)methyl)-1-(cyclopropylmethyl)-1H-1,2,4-triazole-5-carboxamide] | 260 nM |  | 1200 nM
7 | CC(CC(=O)N[C@H](c1ccn2cc([C@@H](NC(=O)c3conc3C3CC3)C3CCC(F)(F)CC3)nc2n1)C1CC1)C(F)(F)F (single isomer, unassigned) [Example 10, 3-Cyclopropyl-N—((S)-(7-((S)-cyclopropyl((R*)-4,4,4-trifluoro-3-methylbutanamido)methyl)imidazo[1,2-a]pyrimidin-2-yl)(4,4-difluorocyclohexyl)methyl)isoxazole-4-carboxamide] | 4100 nM |  | 5800 nM
8 | CC(CC(=O)N[C@H](c1ccn2cc([C@@H](NC(=O)c3conc3CCC(F)(F)F)C3CCC(F)(F)CC3)nc2n1)C1CC1)C(F)(F)F (single isomer, unassigned) [Example 8, N—((S)-(7-((S)-Cyclopropyl((R*)-4,4,4-trifluoro-3-methylbutanamido)methyl)imidazo[1,2-a]pyrimidin-2-yl)(4,4-difluorocyclohexyl)methyl)-3-(3,3,3-trifluoropropyl)isoxazole-4-carboxamide] | 1100 nM |  | 6000 nM
9 | CC(C)n1ncnc1C(=O)N[C@H](c1cn2ccc([C@H](NC(=O)CC(C)C(F)(F)F)C3CC3)nc2n1)C1CCC(F)(F)CC1 (single isomer, unassigned) [Example 18, N—((S)-(7-((R)-Cyclopropyl((R*)-4,4,4-trifluoro-3-methylbutanamido)methyl)imidazo[1,2-a]pyrimidin-2-yl)(4,4-difluorocyclohexyl)methyl)-1-isopropyl-1H-1,2,4-triazole-5-carboxamide] | 580 nM |  | 2000 nM
10 | CC(C)n1ncnc1C(=O)N[C@H](c1cn2ccc([C@H](NC(=O)CC3CC(F)(F)C3)C3CC3)nc2n1)C1CCC(F)(F)CC1 [Example 13, N—((S)-(7-((R)-Cyclopropyl(2-(3,3-difluorocyclobutyl)acetamido)methyl)imidazo[1,2-a]pyrimidin-2-yl)(4,4-difluorocyclohexyl)methyl)-1-isopropyl-1H-1,2,4-triazole-5-carboxamide] | 340 nM | 500 nM | 

Second part, led by results:

Row | IC50 [1] | Structure (SMILES) | IC50 ([2]; Homo sapiens, Keratinocyte) | IC50 [2]
11 | 1400 nM | O=C(CCC(F)(F)F)N[C@H](c1ccn2cc([C@@H](NC(=O)c3conc3C3CC3)C3CCC(F)(F)CC3)nc2n1)C1CC1 [Example 37, 3-Cyclopropyl-N—((S)-(7-((S)-cyclopropyl(4,4,4-trifluorobutanamido)methyl)imidazo[1,2-a]pyrimidin-2-yl)(4,4-difluorocyclohexyl)methyl)isoxazole-4-carboxamide] | > 20000 nM | 
12 | 8700 nM | O=C(CCC(F)(F)F)N[C@H](c1ccn2cc([C@@H](NC(=O)c3ncnn3CC3CC3)C3CCC(F)(F)CC3)nc2n1)C1CC1 [Example 33, N—((S)-(7-((S)-Cyclopropyl(4,4,4-trifluorobutanamido)methyl)imidazo[1,2-a]pyrimidin-2-yl)(4,4-difluorocyclohexyl)methyl)-1-(cyclopropylmethyl)-1H-1,2,4-triazole-5-carboxamide] | > 20000 nM | 
13 | 220 nM | O=C(CC1CC(F)(F)C1)N[C@@H](c1ccn2cc([C@@H](NC(=O)c3nocc3CC(F)(F)F)C3CCC(F)(F)CC3)nc2n1)C1CC1 [Example 63, N—((S)-(7-((R)-Cyclopropyl(2-(3,3-difluorocyclobutyl)acetamido)methyl)imidazo[1,2-a]pyrimidin-2-yl)(4,4-difluorocyclohexyl)methyl)-4-(2,2,2-trifluoroethyl)isoxazole-3-carboxamide] | 640 nM | 
14 | 220 nM | Cn1nccc1C(=O)N[C@H](c1cn2ccc(C(NC(=O)CCC(F)(F)F)C3CC3)nc2n1)C1CCC(F)(F)CC1 (single isomer, unassigned) [Example 44, N—((S)-(7-((S*)-Cyclopropyl(4,4,4-trifluorobutanamido)methyl)imidazo[1,2-a]pyrimidin-2-yl)(4,4-difluorocyclohexyl)methyl)-1-methyl-1H-pyrazole-5-carboxamide] |  | 170 nM
15 | 3000 nM | O=C(CCC(F)(F)F)N[C@H](c1ccn2cc([C@@H](NC(=O)c3cnn(CC4CC4)n3)C3CCC(F)(F)CC3)nc2n1)C1CC1 [Example 31, N—((S)-(7-((S)-Cyclopropyl(4,4,4-trifluorobutanamido)methyl)imidazo[1,2-a]pyrimidin-2-yl)(4,4-difluorocyclohexyl)methyl)-2-(cyclopropylmethyl)-2H-1,2,3-triazole-4-carboxamide] | > 20000 nM | 
16 | 410 nM | CC(C)n1nccc1C(=O)N[C@H](c1cn2ccc(C(NC(=O)CCC(F)(F)F)C3CC3)nc2n1)C1CCC(F)(F)CC1 (single isomer, unassigned) [Example 47, N—((S)-(7-((R*)-Cyclopropyl(4,4,4-trifluorobutanamido)methyl)imidazo[1,2-a]pyrimidin-2-yl)(4,4-difluorocyclohexyl)methyl)-1-isopropyl-1H-pyrazole-5-carboxamide] |  | 120 nM
17 | 220 nM | O=C(CCC(F)(F)F)N[C@@H](c1ccn2cc([C@@H](NC(=O)c3conc3C3CC3)C3CCC(F)(F)CC3)nc2n1)C1CC1 [Example 36, 3-Cyclopropyl-N—((S)-(7-((R)-cyclopropyl(4,4,4-trifluorobutanamido)methyl)imidazo[1,2-a]pyrimidin-2-yl)(4,4-difluorocyclohexyl)methyl)isoxazole-4-carboxamide] | 190 nM | 
18 | 390 nM | Cc1nonc1C(=O)N[C@H](c1cn2ccc([C@H](NC(=O)CC34CC(F)(C3)C4)C3CC3)nc2n1)C1CCC(F)(F)CC1 [Example 59, N—((S)-(7-((R)-Cyclopropyl(2-(3-fluorobicyclo[1.1.1]pentan-1-yl)acetamido)methyl)imidazo[1,2-a]pyrimidin-2-yl)(4,4-difluorocyclohexyl)methyl)-4-methyl-1,2,5-oxadiazole-3-carboxamide] | 990 nM | 
19 | 240 nM | O=C(CCC(F)(F)F)N[C@@H](c1ccn2cc([C@@H](NC(=O)c3cnn(CC4CC4)n3)C3CCC(F)(F)CC3)nc2n1)C1CC1 [Example 34, N—((S)-(7-((R)-Cyclopropyl(4,4,4-trifluorobutanamido)methyl)imidazo[1,2-a]pyrimidin-2-yl)(4,4-difluorocyclohexyl)methyl)-2-(cyclopropylmethyl)-2H-1,2,3-triazole-4-carboxamide] | 580 nM | 

Source: US12559496B2, “Imidazopyrimidines as modulators of IL-17” (Janssen Pharmaceutica NV, priority 2020, dated 2026)
